Molecules are shown by their SMILES.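 Growth conditions: 96-well plates. Treatment: test compound, 48 hours, 5 concentrations. Analysis: linear interpolation between bracketing concentrations; unreached endpoints set to highest concentration. GI50: concentration for 50% inhibition of growth. TGI: concentration producing complete growth inhibition.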

Some test systems named below: K-562 leukemia; SF-539 CNS; LOX IMVI melanoma; NCI-H522 lung; NCI-H23 lung; HS 578T breast; U251 CNS; OVCAR-5 ovarian; BT-549 breast; SK-MEL-5 melanoma.
Common to all, as to assay: growth of human tumour cells (NCI), 48 h

As for `O=C(Nc1ncc(Cc2ccc(Cl)cc2)s1)c1ccc2c(c1)OCCO2`, the GI50 is 0.0453 µM with K-562 leukemia; 0.0469 µM in the assay with SF-539 CNS; 0.0742 µM in the assay on LOX IMVI melanoma; 0.0331 µM in the assay with NCI-H522 lung; 0.298 µM in the assay on NCI-H23 lung; 0.0422 µM with HS 578T breast. Besides, the GI50 with U251 CNS is 0.0549 µM; in the assay with OVCAR-5 ovarian it was 0.266 µM; in the assay with BT-549 breast, 0.207 µM; with SK-MEL-5 melanoma, 0.0539 µM. The TGI in the assay on K-562 leukemia was more than 100 µM; with SF-539 CNS, 0.571 µM; in the assay with LOX IMVI melanoma, more than 100 µM; in the assay with NCI-H23 lung, more than 100 µM; in the assay with HS 578T breast it was 8.65 µM; in the assay on U251 CNS, more than 45.3 µM. In addition, the TGI with OVCAR-5 ovarian was more than 100 µM; with BT-549 breast, more than 83.4 µM; in the assay on SK-MEL-5 melanoma, 1.42 µM.
On to `COc1ccc2cc(C(=O)/C=C/c3ccccc3OC)ccc2c1`, for which the GI50 in the assay with K-562 leukemia is 0.669 µM; in the assay with SF-539 CNS, 1.72 µM; with LOX IMVI melanoma, 0.863 µM; in the assay on NCI-H522 lung it was 1.93 µM; in the assay with NCI-H23 lung it was 5.02 µM; in the assay on HS 578T breast, 4.18 µM. Further, the GI50 in the assay on U251 CNS is 4.33 µM; with OVCAR-5 ovarian it was 18.4 µM; in the assay on BT-549 breast, 4.55 µM; with SK-MEL-5 melanoma, 2.75 µM. Further, the TGI stood at 4.6 µM in the assay on SF-539 CNS; 3.89 µM with LOX IMVI melanoma; 9.67 µM in the assay with NCI-H522 lung; 23.3 µM in the assay with NCI-H23 lung; 98.9 µM with HS 578T breast; 15.6 µM with U251 CNS. Moreover, the TGI with OVCAR-5 ovarian amounted to 49.7 µM; with BT-549 breast it was 24.6 µM; with SK-MEL-5 melanoma it was 15.9 µM.
With `CCCNNC(=O)c1ccc(CNC(=O)/C=C/c2ccccc2)cc1`, the GI50 was 0.0732 µM in the assay on K-562 leukemia; 0.191 µM with SF-539 CNS; 0.139 µM in the assay with LOX IMVI melanoma; 0.226 µM in the assay with NCI-H522 lung; 0.228 µM with NCI-H23 lung; 0.207 µM in the assay on HS 578T breast. Further, the GI50 is 0.198 µM in the assay with U251 CNS, 0.104 µM with OVCAR-5 ovarian, 1.43 µM in the assay with BT-549 breast and 0.102 µM with SK-MEL-5 melanoma. The TGI in the assay on K-562 leukemia is more than 100 µM; in the assay on SF-539 CNS, more than 100 µM; in the assay with LOX IMVI melanoma, 0.306 µM; in the assay with NCI-H522 lung, more than 100 µM; in the assay with NCI-H23 lung, more than 23.5 µM; with HS 578T breast, more than 20.8 µM. Besides, the TGI in the assay with U251 CNS is 1.71 µM; with BT-549 breast, more than 100 µM; in the assay with SK-MEL-5 melanoma, 0.262 µM.
For the compound `COc1ccc(/C=C2\CCCC3=C2N=C2SC=NN2C3c2ccc(OC)c(OC)c2)cc1OC` (configuration not stated), the GI50 in the assay on K-562 leukemia was 6.09 µM; in the assay on SF-539 CNS, 14.6 µM; with LOX IMVI melanoma, 16.6 µM; in the assay on NCI-H522 lung, 17.9 µM; in the assay on NCI-H23 lung it was 22.4 µM; with HS 578T breast it was 28.2 µM. Further, the GI50 in the assay with U251 CNS is 22.7 µM; in the assay with OVCAR-5 ovarian it was 47.7 µM; in the assay on BT-549 breast, 21.9 µM; with SK-MEL-5 melanoma, 16.4 µM. For the same compound, the TGI is more than 100 µM in the assay on K-562 leukemia; 68.5 µM with SF-539 CNS; 75.1 µM in the assay with LOX IMVI melanoma; more than 100 µM in the assay with NCI-H522 lung; more than 100 µM in the assay on NCI-H23 lung; more than 100 µM with HS 578T breast. For the same compound, the TGI in the assay with U251 CNS, in the assay on OVCAR-5 ovarian, with BT-549 breast and with SK-MEL-5 melanoma was more than 100 µM in each case.
On to `Nc1nn(C(=O)Nc2ccc(Cc3ccccc3)cc2)c2ccccc12`, for which the GI50 is 1.2 µM in the assay on K-562 leukemia; 0.495 µM with SF-539 CNS; 0.477 µM in the assay on LOX IMVI melanoma; 2.9 µM in the assay on NCI-H522 lung; 16.8 µM with NCI-H23 lung; 17.2 µM in the assay with HS 578T breast. For the same compound, the GI50 in the assay with U251 CNS was 13.9 µM; in the assay with OVCAR-5 ovarian, 31.3 µM; with BT-549 breast, 13.5 µM; in the assay on SK-MEL-5 melanoma it was 2.22 µM. Moreover, the TGI in the assay on K-562 leukemia is 33.8 µM; in the assay with SF-539 CNS, 5.36 µM; with LOX IMVI melanoma it was 16.1 µM; with NCI-H522 lung, more than 100 µM; with NCI-H23 lung it was 83.5 µM; in the assay with HS 578T breast it was 71.8 µM. For the same compound, the TGI in the assay on U251 CNS is 30.2 µM; with OVCAR-5 ovarian, more than 100 µM; in the assay on BT-549 breast, 39.6 µM; in the assay with SK-MEL-5 melanoma it was 8.64 µM.
For the compound `COc1ccc2c(c1)CC[C@@H]1[C@@H]2CC[C@]2(C)c3c(cc(C(=O)c4ccccc4)c4sccc34)C[C@@H]12`, the GI50 in the assay with K-562 leukemia, in the assay on SF-539 CNS, in the assay with LOX IMVI melanoma, in the assay with NCI-H522 lung, with NCI-H23 lung and in the assay on HS 578T breast was more than 100 µM in each case. In addition, the GI50 in the assay with U251 CNS was more than 100 µM; with OVCAR-5 ovarian it was 60.7 µM; in the assay on BT-549 breast, more than 100 µM; in the assay on SK-MEL-5 melanoma it was more than 100 µM. Besides, the TGI with K-562 leukemia, in the assay with SF-539 CNS, with LOX IMVI melanoma, in the assay on NCI-H522 lung, with NCI-H23 lung and in the assay with HS 578T breast was more than 100 µM each time. For the same compound, the TGI in the assay with U251 CNS, with OVCAR-5 ovarian, with BT-549 breast and with SK-MEL-5 melanoma was more than 100 µM throughout.
As for `COc1ccc2oc(-c3ccc(Cl)cc3)c(N3CCN(C)CC3)c2c1`, the GI50 with K-562 leukemia was 3.38 µM; in the assay with SF-539 CNS, 1.78 µM; with LOX IMVI melanoma, 1.61 µM; in the assay on NCI-H522 lung, 1.9 µM; in the assay with NCI-H23 lung, 2.88 µM; with HS 578T breast, 1.71 µM. Further, the GI50 was 1.64 µM in the assay with U251 CNS, 1.95 µM in the assay with OVCAR-5 ovarian, 6.39 µM in the assay with BT-549 breast and 1.58 µM in the assay on SK-MEL-5 melanoma. In addition, the TGI in the assay with K-562 leukemia is more than 100 µM; with SF-539 CNS, 3.37 µM; with LOX IMVI melanoma, 3.07 µM; in the assay with NCI-H522 lung it was 3.91 µM; in the assay with NCI-H23 lung it was 8.99 µM; in the assay on HS 578T breast, 3.86 µM. For the same compound, the TGI in the assay on U251 CNS was 3.14 µM; in the assay on OVCAR-5 ovarian, 4.34 µM; in the assay with BT-549 breast it was 20.7 µM; in the assay with SK-MEL-5 melanoma, 3.06 µM.

The values are drawn from PubChem BioAssay (NCI).
